Data: paper PMC3602154 (PLoS ONE, 2013)

What was measured:
H3 = H3 (Homo sapiens, UniProt Q9Y5N1); experiment: PDSP radioligand binding, histamine receptor H3
From the text: (§1) [17] and http://pdsp.med.unc.edu/UNC-CH%20Protocol%20Book.pdf.

A4B2 [1] = target: T1, A4B2 (Rattus norvegicus, UniProt P09483+P12390); experiment: PDSP nicotinic receptor A4B2**; format: binding
From the text: as §1

CB2 = CB2 (Homo sapiens, UniProt P34972); experiment: PDSP radioligand binding, cannabinoid CB-2
From the text: as §1

D3 = D3 (Homo sapiens, UniProt P35462); experiment: PDSP radioligand binding, dopamine receptor D3
From the text: as §1

H2 = H2 (Homo sapiens, UniProt P25021); experiment: PDSP radioligand binding, histamine receptor H2
From the text: as §1

A2B4 = A2B4 (Rattus norvegicus, UniProt P12389+P12392); experiment: PDSP radioligand binding, nicotinic receptor α2 ß4
From the text: as §1

5-HT2B = 5-HT2B (Homo sapiens, UniProt P41595); experiment: PDSP radioligand binding, serotonin receptor 5-HT2B
From the text: as §1

H4 = H4 (Homo sapiens, UniProt Q9H3N8); experiment: PDSP radioligand binding, histamine receptor H4
From the text: as §1

[2] = target: NET (norepinephrine transporter) (Homo sapiens, UniProt P23975); experiment: PDSP radioligand binding, norepinephrine transporter; conditions: for inhibition at 10 µM: quadruplicate, read-out: NET Primary Screen inhibition of binding
From the text: as §1

5-HT3 = target: T2, 5-HT3 (Homo sapiens, UniProt P46098); experiment: PDSP radioligand binding, serotonin receptor 5-HT3
T2 sequence (P46098 24-478): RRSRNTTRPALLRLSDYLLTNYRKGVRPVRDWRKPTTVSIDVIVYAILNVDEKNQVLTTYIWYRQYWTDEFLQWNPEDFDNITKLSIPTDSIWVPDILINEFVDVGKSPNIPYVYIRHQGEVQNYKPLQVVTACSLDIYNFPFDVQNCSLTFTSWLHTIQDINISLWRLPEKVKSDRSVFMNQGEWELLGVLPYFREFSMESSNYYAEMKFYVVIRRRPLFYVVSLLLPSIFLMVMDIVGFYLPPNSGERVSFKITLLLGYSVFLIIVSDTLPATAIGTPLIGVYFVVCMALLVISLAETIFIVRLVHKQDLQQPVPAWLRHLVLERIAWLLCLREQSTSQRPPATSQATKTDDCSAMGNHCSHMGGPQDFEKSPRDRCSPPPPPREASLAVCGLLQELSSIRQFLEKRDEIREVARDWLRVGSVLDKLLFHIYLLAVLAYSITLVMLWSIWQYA
From the text: as §1

5-HT2A = 5-HT2A (Homo sapiens, UniProt P28223); experiment: PDSP radioligand binding, serotonin receptor 5-HT2A
From the text: as §1

M1 = target: T3, M1 (Homo sapiens, UniProt P11229); experiment: PDSP radioligand binding, muscarinic receptor M1
T3 sequence (P11229 1-460): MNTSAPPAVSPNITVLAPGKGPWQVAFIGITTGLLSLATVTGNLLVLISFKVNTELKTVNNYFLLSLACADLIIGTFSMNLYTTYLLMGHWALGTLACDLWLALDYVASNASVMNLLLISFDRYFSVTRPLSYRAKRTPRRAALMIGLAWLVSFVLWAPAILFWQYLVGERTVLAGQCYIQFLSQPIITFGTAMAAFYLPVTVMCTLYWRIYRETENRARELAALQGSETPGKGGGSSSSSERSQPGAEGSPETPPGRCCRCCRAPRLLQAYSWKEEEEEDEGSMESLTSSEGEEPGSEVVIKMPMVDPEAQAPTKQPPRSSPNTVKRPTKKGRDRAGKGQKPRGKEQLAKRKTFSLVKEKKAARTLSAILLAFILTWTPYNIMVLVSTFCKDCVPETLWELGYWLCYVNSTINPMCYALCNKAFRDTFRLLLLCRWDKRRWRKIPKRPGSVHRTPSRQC
From the text: as §1

M4 = target: T4, M4 (Homo sapiens, UniProt P08173); experiment: PDSP radioligand binding, muscarinic receptor M4
T4 sequence (P08173 1-479): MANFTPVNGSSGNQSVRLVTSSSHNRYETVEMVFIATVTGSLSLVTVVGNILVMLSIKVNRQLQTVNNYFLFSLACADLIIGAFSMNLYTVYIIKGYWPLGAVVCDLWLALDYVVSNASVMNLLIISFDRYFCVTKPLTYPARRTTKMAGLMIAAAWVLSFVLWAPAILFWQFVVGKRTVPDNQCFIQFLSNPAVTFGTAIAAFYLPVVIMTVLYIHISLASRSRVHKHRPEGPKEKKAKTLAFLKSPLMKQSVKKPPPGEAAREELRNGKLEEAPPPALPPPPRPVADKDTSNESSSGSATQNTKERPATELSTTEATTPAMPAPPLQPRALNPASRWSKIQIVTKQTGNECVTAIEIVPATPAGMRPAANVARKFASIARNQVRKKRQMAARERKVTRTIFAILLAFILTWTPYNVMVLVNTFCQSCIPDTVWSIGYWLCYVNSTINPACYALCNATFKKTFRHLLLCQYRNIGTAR
From the text: as §1

Alpha1A = target: T5, Alpha1A (Homo sapiens, UniProt P35348); experiment: PDSP radioligand binding, adrenoceptor α1A
T5 sequence (P35348 1-466): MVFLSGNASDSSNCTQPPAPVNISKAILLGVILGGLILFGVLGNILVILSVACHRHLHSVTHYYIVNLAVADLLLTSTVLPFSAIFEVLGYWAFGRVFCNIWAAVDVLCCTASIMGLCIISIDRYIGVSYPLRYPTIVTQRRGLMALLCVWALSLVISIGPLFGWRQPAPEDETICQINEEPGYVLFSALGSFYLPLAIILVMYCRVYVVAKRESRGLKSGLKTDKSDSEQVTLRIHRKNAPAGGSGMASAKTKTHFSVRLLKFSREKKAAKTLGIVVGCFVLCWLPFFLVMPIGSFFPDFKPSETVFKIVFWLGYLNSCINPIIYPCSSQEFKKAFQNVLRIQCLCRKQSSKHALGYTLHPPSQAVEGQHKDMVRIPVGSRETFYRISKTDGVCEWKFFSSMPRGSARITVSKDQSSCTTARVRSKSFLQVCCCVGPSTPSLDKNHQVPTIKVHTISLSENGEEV
From the text: as §1

KOR = KOR (Homo sapiens, UniProt P41145); experiment: PDSP radioligand binding, opioid receptor KOR
From the text: as §1

A3B2 = A3B2 (Rattus norvegicus, UniProt P04757+P12390); experiment: PDSP radioligand binding, nicotinic receptor α3 ß2
From the text: as §1

D1 = D1 (Homo sapiens, UniProt P21728); experiment: PDSP radioligand binding, dopamine receptor D1
From the text: as §1

A4B2 [3] = target: T1, A4B2; experiment: PDSP radioligand binding, nicotinic receptor α4 ß2
From the text: as §1

D2 = D2 (Homo sapiens, UniProt P14416); experiment: PDSP radioligand binding, dopamine receptor D2
From the text: as §1

KOR, sequence (P41145 whole entry): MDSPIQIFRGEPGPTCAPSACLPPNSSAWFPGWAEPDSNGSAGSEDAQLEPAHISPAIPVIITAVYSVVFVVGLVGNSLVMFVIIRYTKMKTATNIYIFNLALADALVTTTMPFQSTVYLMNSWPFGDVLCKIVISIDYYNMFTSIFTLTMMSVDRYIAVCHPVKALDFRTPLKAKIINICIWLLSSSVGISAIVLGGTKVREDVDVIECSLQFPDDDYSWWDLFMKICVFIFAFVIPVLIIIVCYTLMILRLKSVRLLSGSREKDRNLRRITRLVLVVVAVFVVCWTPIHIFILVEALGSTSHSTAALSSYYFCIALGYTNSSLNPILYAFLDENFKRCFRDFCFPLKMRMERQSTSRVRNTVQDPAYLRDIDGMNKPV
H3, sequence (Q9Y5N1 whole entry): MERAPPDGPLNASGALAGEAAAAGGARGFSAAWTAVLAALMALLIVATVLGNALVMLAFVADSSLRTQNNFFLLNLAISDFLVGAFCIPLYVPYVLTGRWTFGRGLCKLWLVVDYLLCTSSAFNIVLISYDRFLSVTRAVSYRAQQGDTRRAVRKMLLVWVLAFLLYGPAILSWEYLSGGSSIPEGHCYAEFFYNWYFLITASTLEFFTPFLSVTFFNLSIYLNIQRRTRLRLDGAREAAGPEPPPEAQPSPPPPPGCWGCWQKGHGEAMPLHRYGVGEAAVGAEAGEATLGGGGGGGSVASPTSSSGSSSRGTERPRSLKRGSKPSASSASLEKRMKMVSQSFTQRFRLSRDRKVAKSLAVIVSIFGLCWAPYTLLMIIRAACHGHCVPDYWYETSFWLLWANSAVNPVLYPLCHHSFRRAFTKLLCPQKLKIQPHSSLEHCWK
D1, sequence (P21728 whole entry): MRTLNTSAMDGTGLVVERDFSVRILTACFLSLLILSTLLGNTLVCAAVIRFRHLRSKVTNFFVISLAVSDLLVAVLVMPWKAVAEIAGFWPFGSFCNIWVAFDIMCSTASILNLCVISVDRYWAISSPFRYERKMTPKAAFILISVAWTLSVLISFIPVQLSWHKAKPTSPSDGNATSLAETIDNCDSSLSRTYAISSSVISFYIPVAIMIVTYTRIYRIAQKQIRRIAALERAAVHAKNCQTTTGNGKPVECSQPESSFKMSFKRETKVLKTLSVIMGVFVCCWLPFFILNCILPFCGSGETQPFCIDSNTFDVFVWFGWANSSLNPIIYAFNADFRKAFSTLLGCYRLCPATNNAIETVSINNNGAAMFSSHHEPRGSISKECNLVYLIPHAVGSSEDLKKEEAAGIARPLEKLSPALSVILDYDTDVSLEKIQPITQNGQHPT
H2, sequence (P25021 whole entry): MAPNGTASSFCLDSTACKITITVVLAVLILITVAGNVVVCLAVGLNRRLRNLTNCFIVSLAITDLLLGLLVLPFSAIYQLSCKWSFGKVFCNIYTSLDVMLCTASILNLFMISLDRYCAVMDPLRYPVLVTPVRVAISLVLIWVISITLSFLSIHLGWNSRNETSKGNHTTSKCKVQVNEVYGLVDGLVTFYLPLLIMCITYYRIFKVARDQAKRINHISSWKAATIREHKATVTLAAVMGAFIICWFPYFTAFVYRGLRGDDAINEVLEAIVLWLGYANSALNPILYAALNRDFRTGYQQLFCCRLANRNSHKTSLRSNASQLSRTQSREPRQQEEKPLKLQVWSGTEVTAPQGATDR
D2, sequence (P14416 whole entry): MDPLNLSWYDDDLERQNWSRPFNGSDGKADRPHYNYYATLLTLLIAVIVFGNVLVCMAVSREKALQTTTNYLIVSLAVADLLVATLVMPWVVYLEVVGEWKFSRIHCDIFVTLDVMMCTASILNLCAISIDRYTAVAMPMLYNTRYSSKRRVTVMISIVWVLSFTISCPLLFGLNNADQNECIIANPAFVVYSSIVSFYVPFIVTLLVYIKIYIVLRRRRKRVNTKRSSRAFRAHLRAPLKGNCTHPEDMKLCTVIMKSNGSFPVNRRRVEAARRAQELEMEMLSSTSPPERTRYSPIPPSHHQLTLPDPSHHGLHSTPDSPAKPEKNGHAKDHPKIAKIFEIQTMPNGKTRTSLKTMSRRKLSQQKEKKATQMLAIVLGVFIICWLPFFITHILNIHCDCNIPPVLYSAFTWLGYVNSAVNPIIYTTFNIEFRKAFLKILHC
5-HT2A, sequence (P28223 whole entry): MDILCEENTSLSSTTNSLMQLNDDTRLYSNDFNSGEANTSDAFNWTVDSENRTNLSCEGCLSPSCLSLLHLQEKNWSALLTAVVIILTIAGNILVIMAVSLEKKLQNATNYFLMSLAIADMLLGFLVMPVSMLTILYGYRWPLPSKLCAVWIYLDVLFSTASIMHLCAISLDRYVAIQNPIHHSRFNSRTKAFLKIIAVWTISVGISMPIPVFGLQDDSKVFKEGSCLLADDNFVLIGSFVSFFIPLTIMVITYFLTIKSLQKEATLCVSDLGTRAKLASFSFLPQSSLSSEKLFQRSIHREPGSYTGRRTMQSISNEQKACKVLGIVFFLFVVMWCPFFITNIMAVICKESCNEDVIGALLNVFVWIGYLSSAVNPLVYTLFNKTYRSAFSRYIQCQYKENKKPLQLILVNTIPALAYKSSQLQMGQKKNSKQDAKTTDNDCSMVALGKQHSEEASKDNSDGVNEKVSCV
NET (norepinephrine transporter), sequence (P23975 whole entry, species assumed): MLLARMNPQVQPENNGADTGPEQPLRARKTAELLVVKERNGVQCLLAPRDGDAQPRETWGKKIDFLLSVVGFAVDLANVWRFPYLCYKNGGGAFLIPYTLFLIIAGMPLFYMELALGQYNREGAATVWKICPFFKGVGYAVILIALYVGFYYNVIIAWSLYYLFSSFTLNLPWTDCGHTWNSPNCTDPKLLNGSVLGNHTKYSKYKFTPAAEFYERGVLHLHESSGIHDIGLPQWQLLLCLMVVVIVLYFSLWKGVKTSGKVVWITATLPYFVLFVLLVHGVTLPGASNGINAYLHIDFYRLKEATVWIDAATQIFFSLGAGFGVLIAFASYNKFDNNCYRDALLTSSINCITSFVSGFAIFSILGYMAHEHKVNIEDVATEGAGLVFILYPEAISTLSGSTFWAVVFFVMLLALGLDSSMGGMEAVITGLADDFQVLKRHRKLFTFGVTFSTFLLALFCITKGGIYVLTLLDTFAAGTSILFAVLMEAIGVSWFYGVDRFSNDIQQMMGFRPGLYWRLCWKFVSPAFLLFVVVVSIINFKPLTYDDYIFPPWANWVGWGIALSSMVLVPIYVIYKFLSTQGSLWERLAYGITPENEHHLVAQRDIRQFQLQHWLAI
CB2, sequence (P34972 whole entry, species assumed): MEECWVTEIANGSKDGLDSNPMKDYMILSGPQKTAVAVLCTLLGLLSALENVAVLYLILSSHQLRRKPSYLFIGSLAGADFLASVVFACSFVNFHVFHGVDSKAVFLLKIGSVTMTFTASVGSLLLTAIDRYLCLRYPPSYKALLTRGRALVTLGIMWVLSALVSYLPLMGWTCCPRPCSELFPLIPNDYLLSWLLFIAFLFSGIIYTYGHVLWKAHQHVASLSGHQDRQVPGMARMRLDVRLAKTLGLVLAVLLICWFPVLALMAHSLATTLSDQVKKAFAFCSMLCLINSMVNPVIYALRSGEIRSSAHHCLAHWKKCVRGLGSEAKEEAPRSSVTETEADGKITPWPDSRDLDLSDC
D3, sequence (P35462 whole entry): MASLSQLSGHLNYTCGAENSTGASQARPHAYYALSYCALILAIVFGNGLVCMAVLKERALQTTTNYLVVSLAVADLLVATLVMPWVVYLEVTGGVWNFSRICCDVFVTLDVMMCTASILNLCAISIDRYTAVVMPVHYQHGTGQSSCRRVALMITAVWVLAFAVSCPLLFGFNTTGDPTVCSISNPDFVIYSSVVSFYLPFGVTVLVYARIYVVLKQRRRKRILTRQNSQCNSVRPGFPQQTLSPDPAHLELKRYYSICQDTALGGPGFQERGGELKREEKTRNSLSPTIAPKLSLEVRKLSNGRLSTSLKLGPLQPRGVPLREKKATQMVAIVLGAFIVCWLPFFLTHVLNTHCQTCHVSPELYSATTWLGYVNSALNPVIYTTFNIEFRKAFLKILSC
A3B2, sequence (P04757 26-499): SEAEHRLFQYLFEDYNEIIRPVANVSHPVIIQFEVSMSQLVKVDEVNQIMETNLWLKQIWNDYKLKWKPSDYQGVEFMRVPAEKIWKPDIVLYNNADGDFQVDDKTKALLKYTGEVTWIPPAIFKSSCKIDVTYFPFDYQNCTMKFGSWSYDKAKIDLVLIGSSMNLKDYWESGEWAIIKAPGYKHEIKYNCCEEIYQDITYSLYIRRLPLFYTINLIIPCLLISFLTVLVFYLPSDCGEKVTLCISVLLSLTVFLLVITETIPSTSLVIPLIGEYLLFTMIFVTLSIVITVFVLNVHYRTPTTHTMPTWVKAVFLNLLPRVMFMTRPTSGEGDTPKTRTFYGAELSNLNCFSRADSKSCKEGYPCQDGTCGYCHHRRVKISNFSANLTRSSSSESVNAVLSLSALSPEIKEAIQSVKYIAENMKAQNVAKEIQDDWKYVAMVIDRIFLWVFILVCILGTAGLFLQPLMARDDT
A3B2, sequence (P12390 25-500): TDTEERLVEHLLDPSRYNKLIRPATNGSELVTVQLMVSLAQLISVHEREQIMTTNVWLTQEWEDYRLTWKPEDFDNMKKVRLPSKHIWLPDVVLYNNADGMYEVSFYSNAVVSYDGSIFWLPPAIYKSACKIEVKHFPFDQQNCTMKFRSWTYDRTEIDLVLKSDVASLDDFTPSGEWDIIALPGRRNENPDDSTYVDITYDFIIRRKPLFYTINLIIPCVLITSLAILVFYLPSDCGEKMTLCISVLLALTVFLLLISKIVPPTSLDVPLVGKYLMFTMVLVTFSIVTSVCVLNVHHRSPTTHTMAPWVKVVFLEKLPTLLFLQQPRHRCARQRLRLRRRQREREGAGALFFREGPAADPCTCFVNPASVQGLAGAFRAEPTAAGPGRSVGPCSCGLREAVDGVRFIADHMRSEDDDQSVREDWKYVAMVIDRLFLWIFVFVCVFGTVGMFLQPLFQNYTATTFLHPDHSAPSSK

Which results are given for `CCNC1(c2cccc(OC)c2)CCCCC1=O` (racemic) [Methoxetamine, (RS)-2-(ethylamino)-2-(3-methoxyphenyl)cyclohexanone]?
Ki (H3): > 10 µM; Ki (A4B2 [1]): > 10 µM; Ki (CB2): > 10 µM; Ki (D3): > 10 µM; Ki (H2): > 10 µM; Ki (A2B4): > 10 µM; Ki (5-HT2B): > 10 µM; Ki (H4): > 10 µM; Ki [2]: > 10 µM; inhibition at 10 µM [2]: < 50%; Ki (5-HT3): > 10 µM; Ki (5-HT2A): > 10 µM; Ki (M1): > 10 µM; Ki (M4): > 10 µM; Ki (Alpha1A): > 10 µM; Ki (KOR): > 10 µM; Ki (A3B2): > 10 µM; Ki (D1): > 10 µM; Ki (A4B2 [3]): > 10 µM; Ki (D2): > 10 µM

How did the Ki (H3) turn out when `COc1cccc(C2(N3CCCCC3)CCCCC2)c1` [3-MeO-PCP, 1-[1-(3-methoxyphenyl)cyclohexyl]piperidine] was run?
Its Ki is over 10 µM.

And the Ki (A4B2 [1])?
The Ki was over 10 µM.

What about the Ki (CB2) of the same molecule?
The Ki was over 10 µM.

And the Ki (D3)?
Its Ki is over 10 µM.

What about the Ki (H2) of the same molecule?
Its Ki is 2.1 µM.

And the Ki (A2B4)?
Its Ki is over 10 µM.

And the Ki (5-HT2B)?
Its Ki is over 10 µM.

And the Ki (H4)?
Its Ki is over 10 µM.

What about the Ki [2] of the same molecule?
The Ki was over 10 µM.

And the inhibition at 10 µM [2]?
Its inhibition at 10 µM is under 50%.

What about the Ki (5-HT3) of the same molecule?
Its Ki is over 10 µM.

And the Ki (5-HT2A)?
The Ki was over 10 µM.

And the Ki (M1)?
The Ki was over 10 µM.

And the Ki (M4)?
The Ki was over 10 µM.

What about the Ki (Alpha1A) of the same molecule?
Its Ki is over 10 µM.

And the Ki (KOR)?
Its Ki is over 10 µM.

And the Ki (A3B2)?
The Ki was over 10 µM.

What about the Ki (D1) of the same molecule?
Its Ki is over 10 µM.

What about the Ki (A4B2 [3]) of the same molecule?
Its Ki is over 10 µM.

And the Ki (D2)?
The Ki was over 10 µM.

What does the source list for `COc1ccc(C2(N3CCCCC3)CCCCC2)cc1` [4-MeO-PCP, 1-[1-(4-methoxyphenyl)cyclohexyl]piperidine]?
Ki (H3): > 10 µM; Ki (A4B2 [1]): > 10 µM; Ki (CB2): > 10 µM; Ki (D3): > 10 µM; Ki (H2): > 10 µM; Ki (A2B4): > 10 µM; Ki (5-HT2B): > 10 µM; Ki (H4): > 10 µM; Ki [2]: 0.713 µM; Ki (5-HT3): > 10 µM; Ki (5-HT2A): > 10 µM; Ki (M1): > 10 µM; Ki (M4): > 10 µM; Ki (Alpha1A): > 10 µM; Ki (KOR): > 10 µM; Ki (A3B2): > 10 µM; Ki (D1): > 10 µM; Ki (A4B2 [3]): > 10 µM; Ki (D2): > 10 µM
